Measurements reported in patent US12576129B2, “Anthelmintic compositions and methods” (priority 2016, dated 2026).
In brackets after ≈: the same amount, converted by molar mass. Where two headings read alike, the source gives them in different places.

What was measured:
[1] = system: Ancylostoma ceylanicum hookworms; settings: cited from earlier work; for % Parasite reduction: A. ceylanicum infections in hamsters
BaCC [2] = assay: Minimum inhibitory concentration of terpenes against BaCC (broth microdilution); assay type: cell-based; settings: Bacillus thuringiensis; 24 h at 30° C. in LB; no absorbance increase; read-out: MIC μg/mL (100)
Method: Three terpenes were tested against BaCC including: carvacrol, geraniol and farnesol, by using the broth microdilution method as described in Agaisse and Lereclus, J. Bacteriol. 176, 4734-4741, 1994 and Agaisse and Lereclus, Mol. Microbiol. 13, 97-107, 1994 with some modifications. Briefly, BaCC from a single colony was grown in 5 mL of LB medium supplemented with 10 μg/mL erythromycin+200 μg/mL kanamycin overnight (O.D. (600) of 4.8, 2.3×10^7 CFU/mL). Terpene solutions were prepared at 1 mg/mL in LB. One hundred μL of two-fold serial dilutions of each terpene in LB were prepared in 96-well microtiter plates over the range of 1000 to 3.9 μg/mL in triplicate. LB without terpenes was used as a negative control. BaCC culture was diluted 100 times, and 100 μL of BaCC culture was added to the wells. Absorbance at 600 nm was recorded before and after the incubation to monitor bacterial growth. The MICs were determined after incubation for 24 h at 30° C. without shaking.

BaCC [3] = assay: Time to kill: CFU/mL of BaCC after terpene treatment; assay type: cell-based, Bacillus thuringiensis
Method: In order to determine which terpene kills BaCC in the shortest amount of time, we incubated 5 mL of BaCC culture with three terpenes at 1 mg/mL at 4° C. for 1, 2, 3 and 5 hours. No terpene control and no bacteria controls were carried out simultaneously. After incubation with terpenes, samples were centrifuged and the pellets were washed with 5 mL of 1M NaCl once and 5 mL of sterile distilled water twice in order to remove the terpenes. The pellets were re-suspended in the original volume and plated on LB agar with kanamycin and erythromycin. Plates were incubated overnight at 30° C.; the next day, the number of colonies on the plates were enumerated and colony forming units (CFU)/mL calculated.
To assess terpene killing at shorter time points, BaCC culture was grown in 3× LB for 48 h as described above and 60 ml of cultures were aliquoted in sterile tubes. Carvacrol and geraniol were added to the final concentration of 1 mg/mL, and the tubes were placed on a rotator at 4° C. for 15 minutes. The negative control was prepared using sterile water instead of terpenes. At the end of the incubation period, the tubes were centrifuged at 2000× g for 10 minutes and pellets washed with 60 ml of 1 M NaCl once and washed with 60 mL of sterile distilled water twice. Pellets were re-suspended in 1.2 mL of sterile distilled water to concentrate the culture 50 times. Concentrated terpene treated and control samples were plated on LB agar plates containing kanamycin and erythromycin and incubated overnight at 30° C. The number of colonies were counted the next day and CFU/mL calculated for each time point.

Ancylostoma caninum = Ancylostoma caninum hookworm infection in dogs (fecal egg count, capsule endoscopy); assay type: in vivo
Method: Two beagles were inoculated per os with 1000 Ancylostoma caninum larvae. Forty one days post-infection, stool was collected for determination of fecal egg loads and the dog intestines were imaged using capsule endoscopy to count hookworms (Lee, A., et al. Int. J. Parasitol. 41, 1377-1383, 2011). One dose of Cry5B SCL (˜40 mg/kg) was given by gavage on each of day 42 and 44 post-infection. On day 49 post-infection a final fecal egg count was taken and capsule endoscopy repeated for final hookworm counts.

[4] = system: Heligmosomoides polygyrus; assay: Heligmosomoides polygyrus infection in STAT6-/- mice; assay type: in vivo; settings: immunosuppressed mice lacking STAT6
Text: Such a result is not surprising given that Cry5B directly intoxicates STH parasites in vitro. This is not true of all anthelmintics, e.g., DEC and in some cases ivermectin, for which it appears that involvement of the immune system is important for their mechanism of action. To confirm that the immune system is not essential for Cry5B action, STAT6−/− mice were infected with Heligmosomoides polygyrus STH parasites. STAT6 is required for the TH2 response required for normal expulsion of STH parasites.

[5] = system: Ancylostoma ceylanicum hookworms; assay: A. ceylanicum hookworm curative experiment in Syrian hamsters (worm burdens, fecal egg counts); assay type: in vivo
Method: Studies of Ancylostoma ceylanicum hookworms in Syrian hamsters were carried out as previously described (Hu, Y., et al. PLoS One, 8, e70702, 2013; Hu, Y., et al. Appl Environ Microbiol, 79, 5527-5532, 2013). Briefly, 4-6 week old male hamsters were infected with 150 infectious third staged larvae per os. On day 17 post-infection, an overnight collection of stool is taken and fecal egg counts (FECs) taken the next day. The hamsters are assigned to groups based on FEC so that there is roughly the same level of infection (same average egg per gram of feces or EPG) in all groups. On day 18 post-infection, the hamsters are weighed for dosing purposes and then gavaged with treatments as described in each experiment. On day 21 post-infection, another overnight collection of stool is taken for FECs. On day 22 post-infection, the animals were euthanized. Total hookworms in the small intestine were counted and EPGs calculated.
For all experiments involving cimetidine, hamsters or mice were pre-gavaged with 200 μL of an 8.75% cimetidine solution 15 minutes prior to therapeutic treatment (Stepek, G., et al. Parasitology, 134, 103-112, 2007).
For in vivo curative experiments, male hamsters were infected per os with 150 A. ceylanicum infectious larvae. On day 17 postinoculation (p.i.), a fecal sample was collected from each hamster, and the number of eggs was counted using the modified McMaster technique (13). On the basis of these fecal egg counts, the hamsters were segregated to ensure that the groups (control and treatment) had roughly equivalent infection levels. […] The hamsters were sacrificed on day 22 p.i., and intestinal parasite burdens were determined as described previously (14). The one-tailed Mann-Whitney test was performed to compare the two groups for significance in the experiment using a dose of 10 mg/kg of body weight (data were calculated and plotted using Prism 5 [GraphPad Software Inc., La Jolla, CA]). […]

[6] = Average of dogs (n = 2), 40 mg/kg
[7] = dogs (n = 2), post- vs pre-treatment, 40 mg/kg

CCCSc1ccc2nc(NC(=O)OC)[nH]c2c1 [Albendazole, albendazole]
% Parasite reduction ([1]; 1.25 mg/kg): 88% | reduction of A. ceylanicum burdens ([1]; hamsters, 1.25-mg/kg (4.7 μmol/kg) dose): 88% | dose required to clear the same infection ([1]; in vivo): 5 mg/kg

CC(C)=CCC/C(C)=C/CO [Geraniol, geraniol]
MIC (BaCC [2]): 500 µg/mL (≈ 3240 µM) | CFU/ml (1 mg/mL terpene treatment for time indicated) (BaCC [3]; 15 min at 4° C., culture concentrated 50 times (50X conc.) before plating): 100 CFU/ml | CFU/ml (1 mg/mL terpene treatment for time indicated) (BaCC [3]; 1 h at 4° C.): 0 CFU/ml | CFU/ml (1 mg/mL terpene treatment for time indicated) (BaCC [3]; 3 h at 4° C.): 0 CFU/ml | CFU/ml (1 mg/mL terpene treatment for time indicated) (BaCC [3]; 5 h at 4° C.): 0 CFU/ml | CFU/ml (1 mg/mL terpene treatment for time indicated) (BaCC [3]; time 0): 2.31 × 10^7 CFU/ml

C/C(=N/c1ccc(/N=C/c2ccc(/C=N/c3ccc(/N=C(/C)N(C)C)cc3)cc2)cc1)N(C)C [Tribendimidine, tribendimidine]
% Parasite reduction ([1]; 10 mg/kg): 75% | reduction of A. ceylanicum burdens ([1]; hamsters, 10-mg/kg dose): 75%

CC(C)=CCCC(C)=CCCC(C)=CCO [Farnesol, farnesol]
MIC (BaCC [2]): 500 µg/mL (≈ 2250 µM) | CFU/ml (1 mg/mL terpene treatment for time indicated) (BaCC [3]; 1 h at 4° C.): 1.00 × 10^7 CFU/ml | CFU/ml (1 mg/mL terpene treatment for time indicated) (BaCC [3]; 3 h at 4° C.): 1.30 × 10^5 CFU/ml | CFU/ml (1 mg/mL terpene treatment for time indicated) (BaCC [3]; 5 h at 4° C.): 0 CFU/ml | CFU/ml (1 mg/mL terpene treatment for time indicated) (BaCC [3]; time 0): 2.31 × 10^7 CFU/ml

CN1CCCN=C1/C=C/c1cccs1 [Pyrantel, pyrantel]
% Parasite reduction ([1]; 10 mg/kg): 87% | reduction of A. ceylanicum burdens ([1]; hamsters, 10-mg/kg dose): 87%

c1ccc([C@H]2CN3CCSC3=N2)cc1 [Levamisole, levamisole]
% Parasite reduction ([1]; 10 mg/kg): 60% | reduction of A. ceylanicum burdens ([1]; hamsters, 10-mg/kg dose): 60%

B1: Cry5B: Bacillus thuringiensis crystal (Cry) protein Cry5B, SEQ ID NO:1; purified full-length protein (protein, listed as Bacillus thuringiensis)
chain: MATINELYPVPYNVLAHPIKEVDDPYSWSNLLKGIQEGWEEWGKTGQKKLFEDHLTIAWNLYKTGKLDYFALTKASISLIGFIPGAEAAVPFINMFVDFVWPKLFGANTEGKDQQLFNAIMDAVNKMVDNKFLSYNLSTLNKTIEGLQGNLGLFQNAIQVAICQGSTPERVNFDQNCTPCNPNQPCKDDLDRVASRFDTANSQFTQHLPEFKNPWSDENSTQEFKRTSVELTLPMYTTVATLHLLLYEGYIEFMTKWNFHNEQYLNNLKVELQQLIHSYSETVRTSFLQFLPTLNNRSKSSVNAYNRYVRNMTVNCLDIAATWPTFDTHNYHQGGKLDLTRIILSDTAGPIEEYTTGDKTSGPEHSNITPNNILDTPSPTYQHSFVSVDSIVYSRKELQQLDIATYSTNNSNNCHPYGLRLSYTDGSRYDYGDNQPDFTTSNNNYCHNSYTAPITLVNARHLYNAKGSLQNVESLVVSTVNGGSGSCICDAWINYLRPPQTSKNESRPDQKINVLYPITETVNKGTGGNLGVISAYVPMELVPENVIGDVNADTKLPLTQLKGFPFEKYGSEYNNRGISLVREWINGNNAVKLSNSQSVGIQITNQTKQKYEIRCRYASKGDNNVYFNVDLSENPFRNSISFGSTESSVVGVQGENGKYILKSITTVEIPAGSFYVHITNQGSSDLFLDRIEFVPKIQFQFCDNNNLHCDCNNPVDTDCTFCCVCTSLTDCDCNNPRGLDCTLCCQVENQLPSFVTLTDLQNITTQVNALVASSEHDTLATDVSDYEIEEVVLKVDALSGEVFGKEKKALRKLVNHTKRLSKARNLLIGGNFDNLDAWYRGRNVVNVSDHELFKSDHVLLPPPTLYSSYMFQKVEESKLKANTRYTVSGFIAHAEDLEIVVSRYGQEVKKVVQVPYGEAFPLTSRGAICCPPRSTSNGKPADPHFFSYSIDVGTLDVEANPGIELGLRIVERTGMARVSNLEIREDRPLKKNELRNVQRAARNWRTAYDQERAEVTALIQPVLNQINALYENEDWNGAIRSGVSYHDLEAIVLPTLPKLNHWFMSDMLGEQGSILAQFQEALDRAYTQLEESTILHNGHFTTDAANWTIEGDAHHAILEDGRRVLRLPDWSSSVSQTIEIENFDPDKEYQLVFHAQGEGTVSLQHGEEGEYVETHPHKSANFTTSHRQGVTFETNKVTVEITSEDGEFLVDHIALVEAPLPTDDQSSDGNTTSNTNSNTSMNNNQ
modifications: source = /note="Bacillus thuringiensis pesticidal crystal (Cry)"
Fecal Egg Count Pre-Treatment (Ancylostoma caninum; Average of dogs (n = 2)): 12581 EPG of Feces | Hookworm Burden Pre-Treatment (Ancylostoma caninum; Average of dogs (n = 2)): 70 | Fecal Egg Count Post-Treatment (Ancylostoma caninum; [6]): 1081.5 EPG of Feces | Hookworm Burden Post-Treatment (Ancylostoma caninum; [6]): 3.5 | Hookworm Burden Pre-Treatment (Ancylostoma caninum; Dog 1, capsule endoscopy, day 41 post-infection): 84 | Hookworm Burden Post-Treatment (Ancylostoma caninum; Dog 1, capsule endoscopy, day 49, ~40 mg/kg on days 42 and 44): 4 | Fecal Egg Count Pre-Treatment (Ancylostoma caninum; Dog 1, day 41 post-infection): 15750 EPG of Feces | Fecal Egg Count Post-Treatment (Ancylostoma caninum; Dog 1, day 49 post-infection, ~40 mg/kg by gavage on days 42 and 44): 1590 EPG of Feces | Hookworm Burden Pre-Treatment (Ancylostoma caninum; Dog 2, capsule endoscopy, day 41 post-infection): 56 | Hookworm Burden Post-Treatment (Ancylostoma caninum; Dog 2, capsule endoscopy, day 49, ~40 mg/kg on days 42 and 44): 3 | Fecal Egg Count Pre-Treatment (Ancylostoma caninum; Dog 2, day 41 post-infection): 9412 EPG of Feces | Fecal Egg Count Post-Treatment (Ancylostoma caninum; Dog 2, day 49 post-infection, ~40 mg/kg by gavage on days 42 and 44): 573 EPG of Feces | % Reduction of Fecal Egg Count (Ancylostoma caninum; [7]): 91.4% | % Reduction of Hookworm Burden (Ancylostoma caninum; [7]): 95% | efficacy against A. caninum in dogs (Ancylostoma caninum; ~40 mg/kg by gavage on days 42 and 44 post-infection): highly effective | hookworm burden reduction ([1]; hamsters, purified protein at 10 mg/kg, previously published data (ref 14)): 65% | efficacy against H. polygyrus [4]: effective | % Parasite reduction ([5]; A. ceylanicum infections in hamsters, 10 mg/kg, This Example): 93% | efficacy after pre-exposure to two doses of Cry5B prior to infection ([5]; hamsters): not altered | effect of pre-neutralization of stomach acid on efficacy ([5]; hamsters pre-gavaged with cimetidine (and NaHCO3) before treatment): improved
